Source: patent US7361681B2, “Method of treating amytrophic lateral sclerosis using melatonin” (SYGNIS Bioscience GmbH & Co. KG, priority 2003, dated 2008)
Where “and” joins values, the source holds several entries; their conditions need not be identical. Equal entries are not always repeated.

Tests used:
[1] = cited from earlier work
ALS patients = experiment: pilot program of chronic high-dose melatonin in ALS patients; assay type: in vivo, human
Description: Three ALS patients with an estimated onset of disease 2-4 yr previously, were included in a pilot program in Göttingen, set up to explore potential effects and side-effects of chronic high-dose melatonin in this condition. Intraindividual follow-up (upon entering the study, and after 1, 2, 6, 9 and 13 months of treatment thus far) included physical examination/clinical rating scales (ALS functional rating scale, ALSFRS), pulmonary function test, EMG-NCV, routine laboratory parameters, psychological rating scales, as well as magnetic resonance imaging and MR spectroscopy. Patients received 30-60 mg of melatonin as an oral slow release formulation in the late evening. In addition, they continued their “regular medication” in the morning and at noon (RIUZOLE® 50-100 mg, vitamins C and E, creatine, […]).

[2] = 30-60 mg melatonin oral slow release in the late evening, up to 13 months

Description for SODG93A-transgenic mice: Rotarod failure is defined to start when mice are no longer able to stay in the rotarod for more than 300 sec (=early disease state).
Shown are days after score 1 (abnormal hindlimb reflex or tremor in at least one extremity or asymmetrical gait) to score 4 (endpoint criteria/death).
Melatonin was continuously applied via drinking water (0.5 mg/ml of water containing 1% of ethanol to enable a saturated solution of melatonin) starting on day 28 of life and continued until death. The vehicle control received water containing 1% of ethanol.

## COc1ccc2[nH]cc(CCNC(C)=O)c2c1 [melatonin, N-acetyl-5-methoxytryptamine]
[1]; in vivo
  crossing of the blood-brain barrier: readily crosses
[1]; slow release preparations
  duration of high plasma levels: about 6 hr
ALS patients; [2]
  side effects reported or detected: No side effects
  signs of fatigue: no signs of fatigue
ALS patients; 30-60 mg melatonin oral slow release in the late evening, up to 13 months, plus regular medication
  tolerability over the entire observation period: well tolerated
ALS patients; 30-60 mg melatonin oral slow release nightly
  clinical laboratory parameters (blood cell count, electrolytes, liver enzymes, creatinine, CRP etc.) during melatonin treatment: did not show alterations
ALS patients; three patients, 30-60 mg melatonin oral slow release nightly
  clinical rating scale (ALSFRS) one year later: 22 and 11 and 20
ALS patients; three patients, baseline
  clinical rating scale (ALSFRS) at the start of the trial: 34 and 25 and 31
SODG93A-transgenic mice; 0.5 mg/ml in drinking water with 1% ethanol, from day 28 of life until death
  survival and course of disease (rotarod performance, progression of paresis, weight loss): significant improvement
SODG93A-transgenic mice; 0.5 mg/ml in drinking water, application of several months
  adverse effects of systemic melatonin: No adverse effects
SODG93A-transgenic mice; SODG93A mice, n=9-12 per group, FIG. 1
  days from rotarod failure (no longer able to stay more than 300 sec) to death, versus vehicle: significantly more
SODG93A-transgenic mice; SODG93A mice, n=9-12 per group, FIG. 2
  days from clinical score 1 to score 4 (endpoint criteria/death), versus vehicle: significantly more
